What was measured:
[1] = system: normal NK cells expanded with K562-aAPC; assay: percent inhibition of viability; higher = more inhibition; details: 72 h, IL-2 2.5 ng/mL
Protocol: (§1)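 Drug sensitivity and resistance testing on K562-aAPC-expanded normal NK cells: 5 concentrations (10-fold steps over a 10,000-fold range), 72 h at 37 °C, viability by CellTiter-Glo normalised to DMSO and benzethonium chloride controls; DSS from the fitted curve.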

DERL-7 (IL-2 2.5 ng/mL) [2] = assay: as above; details: 72 h
IMC-1 (IL-2 20 ng/mL) [3] = assay: as above; details: 72 h
KAI3 (IL-2 2.5 ng/mL) [4] = assay: as above; details: 72 h
KHYG-1 (IL-2 2.5 ng/mL) [5] = assay: as above; details: 72 h
NK-92 (IL-2 2.5 ng/mL) [6] = assay: as above; details: 72 h
NK-YS (IL-2 2.5 ng/mL) [7] = assay: as above; details: 72 h
NKL (IL-2 2.5 ng/mL) [8] = assay: as above; details: 72 h
SNK-6 (IL-2 2.5 ng/mL) [9] = assay: as above; details: 72 h
YT (IL-2 2.5 ng/mL) [10] = assay: as above; details: 72 h
[11] = system: normal primary NK cells, pool 1 (3 donors) (IL-2 2.5 ng/mL); assay: as above; details: 72 h
[12] = system: normal primary NK cells, pool 1 (3 donors), resting (IL-2 0 ng/mL); assay: as above; details: 72 h
[13] = system: normal primary NK cells, pool 2 (3 donors) (IL-2 2.5 ng/mL); assay: as above; details: 72 h
[14] = system: normal primary NK cells, pool 3 (3 donors) (IL-2 2.5 ng/mL); assay: as above; details: 72 h
[15] = system: normal NK cells expanded with K562-aAPC; assay: drug sensitivity score (DSS) (DSS units); higher = more sensitive; extreme values may be limits of the assay; details: 72 h; IL-2 2.5 ng/mL
Protocol: as §1

DERL-7 (IL-2 2.5 ng/mL) [16] = assay: as above; details: 72 h
IMC-1 (IL-2 20 ng/mL) [17] = assay: as above; details: 72 h
KAI3 (IL-2 2.5 ng/mL) [18] = assay: as above; details: 72 h
KHYG-1 (IL-2 2.5 ng/mL) [19] = assay: as above; details: 72 h
NK-92 (IL-2 2.5 ng/mL) [20] = assay: as above; details: 72 h
NK-YS (IL-2 2.5 ng/mL) [21] = assay: as above; details: 72 h
NKL (IL-2 2.5 ng/mL) [22] = assay: as above; details: 72 h
SNK-6 (IL-2 2.5 ng/mL) [23] = assay: as above; details: 72 h
YT (IL-2 2.5 ng/mL) [24] = assay: as above; details: 72 h
[25] = system: normal primary NK cells, pool 1 (3 donors) (IL-2 2.5 ng/mL); assay: as above; details: 72 h
[26] = system: normal primary NK cells, pool 1 (3 donors), resting (IL-2 0 ng/mL); assay: as above; details: 72 h
[27] = system: normal primary NK cells, pool 2 (3 donors) (IL-2 2.5 ng/mL); assay: as above; details: 72 h
[28] = system: normal primary NK cells, pool 3 (3 donors) (IL-2 2.5 ng/mL); assay: as above; details: 72 h
IMC-1 (IL-2 20 ng/mL) [29] = assay: relative IC50 (inflection point of fitted viability curve, relative to fitted max inhibition); higher = less sensitive; details: 72 h
Protocol: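 Drug sensitivity and resistance testing: 5 concentrations over a 10,000-fold range, 72 h at 37 °C, viability by CellTiter-Glo normalised to DMSO and benzethonium chloride controls. IC50 is the inflection point of a logistic fit (min fixed at 0, max fitted), so it is relative to the fitted maximal inhibition. Kept only where fitted max inhibition is at least 50%.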

CNC(=O)CN1CCC(Oc2cc3c(Nc4cccc(Cl)c4F)ncnc3cc2OC)CC1 [Sapitinib] (max concentration tested 1000 nM)
percent inhibition of viability [%]
Details | 0.1 nM | 1 nM | 10 nM | 100 nM | 1000 nM
DERL-7 (IL-2 2.5 ng/mL) [2] | 3.06 | 0.6 | -4.76 | -5 | -2.82
IMC-1 (IL-2 20 ng/mL) [3] | 0.18 | 0.99 | 5.5 | 4.61 | 15.1
KAI3 (IL-2 2.5 ng/mL) [4] | -6.57 | -1.42 | 0.58 | -5.73 | 11.3
KHYG-1 (IL-2 2.5 ng/mL) [5] | 0.69 | 2.55 | 10.2 | 2.53 | 4.41
NK-92 (IL-2 2.5 ng/mL) [6] | -3.59 | -7.59 | 7.58 | -10.8 | 6.39
NK-YS (IL-2 2.5 ng/mL) [7] | 0.21 | 0.23 | 5.94 | 0.04 | 5.37
NKL (IL-2 2.5 ng/mL) [8] | -6.69 | -1.96 | -5.01 | 0.25 | 5.26
SNK-6 (IL-2 2.5 ng/mL) [9] | 3.05 | 16.8 | 21.3 | 25.7 | 25.6
YT (IL-2 2.5 ng/mL) [10] | 1.69 | 2.8 | 8.28 | 2.39 | 14.2
[1] | 3.94 | 0.06 | -2.58 | 3.86 | 22.1
[11] | 3.61 | -8.96 | 0.62 | -8.22 | 4.72
[12] | 6.72 | -12.5 | 3.2 | -20.9 | -10.5
[13] | -5.36 | 0.45 | 2.66 | 4.26 | 5.15
[14] | -11.4 | -8.98 | 0.1 | -3.48 | 6.33

Details | drug sensitivity score
DERL-7 (IL-2 2.5 ng/mL) [16] | 0
IMC-1 (IL-2 20 ng/mL) [17] | 0.17
KAI3 (IL-2 2.5 ng/mL) [18] | 0
KHYG-1 (IL-2 2.5 ng/mL) [19] | 0
NK-92 (IL-2 2.5 ng/mL) [20] | 0
NK-YS (IL-2 2.5 ng/mL) [21] | 0
NKL (IL-2 2.5 ng/mL) [22] | 0
SNK-6 (IL-2 2.5 ng/mL) [23] | 8.21
YT (IL-2 2.5 ng/mL) [24] | 0.02
[15] | 1.29
[25] | 0
[26] | 0
[27] | 0
[28] | 0

COc1cccc2cc(-c3nc([C@H]4CC[C@H](C(=O)O)CC4)n4ncnc(N)c34)[nH]c12 [OSI-027] (max concentration tested 10000 nM)
percent inhibition of viability [%]
Details | 1 nM | 10 nM | 100 nM | 1000 nM | 10000 nM
DERL-7 (IL-2 2.5 ng/mL) [2] | 7.51 | -0.27 | 4.62 | 33.3 | 81.3
IMC-1 (IL-2 20 ng/mL) [3] | -0.57 | -5.79 | -6.31 | -24.6 | 15.6
KAI3 (IL-2 2.5 ng/mL) [4] | -2.08 | 0.41 | 9.85 | 34.9 | 65.5
KHYG-1 (IL-2 2.5 ng/mL) [5] | -1.84 | -0.78 | 4.77 | 18.4 | 68.1
NK-92 (IL-2 2.5 ng/mL) [6] | 2.75 | 14.2 | 11.7 | 37.3 | 67
NK-YS (IL-2 2.5 ng/mL) [7] | -5.3 | -6.22 | 3.24 | 12.3 | 67.8
NKL (IL-2 2.5 ng/mL) [8] | -11.8 | -3.21 | 15.2 | 49.5 | 66
SNK-6 (IL-2 2.5 ng/mL) [9] | 4.93 | 11.4 | 9.18 | 31.7 | 55.4
YT (IL-2 2.5 ng/mL) [10] | 2.96 | 3.52 | 7.55 | 26.5 | 62.3
[1] | -6.22 | -5.68 | 3.76 | 21.5 | 48.2
[11] | -9.22 | 7.53 | -13.9 | 16.4 | 24.5
[12] | -7.98 | 3.28 | -0.52 | 18.1 | 13
[13] | -8.05 | -2.56 | 3.22 | 27.2 | 24.8
[14] | -5.61 | 1.81 | 2.65 | 24.4 | 23.8

Details | drug sensitivity score
DERL-7 (IL-2 2.5 ng/mL) [16] | 8.48
IMC-1 (IL-2 20 ng/mL) [17] | 0.09
KAI3 (IL-2 2.5 ng/mL) [18] | 7.92
KHYG-1 (IL-2 2.5 ng/mL) [19] | 6.5
NK-92 (IL-2 2.5 ng/mL) [20] | 8.91
NK-YS (IL-2 2.5 ng/mL) [21] | 5.77
NKL (IL-2 2.5 ng/mL) [22] | 10.9
SNK-6 (IL-2 2.5 ng/mL) [23] | 7.2
YT (IL-2 2.5 ng/mL) [24] | 6.33
[15] | 4.91
[25] | 2.65
[26] | 2.18
[27] | 4.93
[28] | 4.17

C[C@]1(O)C[C@@H](c2nc(-c3ccc4ccc(-c5ccccc5)nc4c3)c3c(N)nccn32)C1 [Linsitinib]
Details | relative IC50 [µM]
IMC-1 (IL-2 20 ng/mL) [29] | > 10

From the supplement of paper PMC5908809
